This note sets out measurements from patent publication US20260022142A1, “MACROCYCLIC IMMUNOMODULATORS” (Bristol-Myers Squibb Company, priority 2022, published 2026).

pIC50: −log10 of the molar value. Numbered stars: 1 amine (or outer) side, 2 acyl side, 3 side chain; on linkers, the order of the positions; unused ones are H or OH. Bridge positions count the residues as written; N and C are the ends. Square brackets hold non-standard residues; d marks the D form. Peptide text beside a SMILES is read from it. * marks the point of attachment. ξ: configuration not given here. Phe(4-CH2CH2COOH) = N[C@@H](Cc1ccc(CCC(=O)O)cc1)C(=O)O; Phe(3-CF3) = N[C@@H](Cc1cccc(C(F)(F)F)c1)C(=O)O; Phe(4-COOH) = N[C@@H](Cc1ccc(C(=O)O)cc1)C(=O)O; Bip = N[C@@H](Cc1ccc(-c2ccccc2)cc1)C(=O)O; Tyr(3-Me) = Cc1cc(C[C@H](N)C(=O)O)ccc1O; Phe(3-Me) = Cc1cccc(C[C@H](N)C(=O)O)c1; γGlu = O=C(O)[C@H](CCC(=O)[*:2])N[*:1]; NH(CH2)12COOH = O=C(O)CCCCCCCCCCCCN*; Val(3-OH) = CC(C)(O)[C@H](N)C(=O)O; hArg = N=C(N)NCCCC[C@H](N)C(=O)O; Cha = N[C@@H](CC1CCCCC1)C(=O)O; Cit = NC(=O)NCCC[C@H](N)C(=O)O; Thr(3ξ) = CC(O)[C@H](N)C(=O)O; Cba = N[C@@H](CC1CCC1)C(=O)O; Dap(Me) = CNC[C@H](N)C(=O)O; 12Ado = NCCCCCCCCCCCC(=O)O; hSer = N[C@@H](CCO)C(=O)O; Carboxymethyl = O=C(O)C*; Orn = NCCC[C@H](N)C(=O)O; Aun = NCCCCCCCCCCC(=O)O; Dab = NCC[C@H](N)C(=O)O; Abu = CC[C@H](N)C(=O)O; Dap = NC[C@H](N)C(=O)O; AEEA = NCCOCCOCC(=O)O

The target of this test is T1, PD-1/PD-L1 interaction (PE-labeled human PD-L1-Ig binding to Jurkat cell line over-expressing human PD-1) (Homo sapiens, UniProt Q15116).
T1 construct: expressed in transfected cells; host or cells: Jurkat
T1 sequence (Q15116 25-288): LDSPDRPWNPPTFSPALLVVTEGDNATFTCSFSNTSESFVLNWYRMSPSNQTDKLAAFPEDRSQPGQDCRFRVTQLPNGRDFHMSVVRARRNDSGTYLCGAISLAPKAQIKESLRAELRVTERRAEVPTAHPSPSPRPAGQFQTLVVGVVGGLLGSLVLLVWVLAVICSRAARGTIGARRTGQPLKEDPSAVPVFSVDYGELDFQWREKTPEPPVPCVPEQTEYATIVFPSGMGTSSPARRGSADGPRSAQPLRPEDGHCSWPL
The experiment in a line: Jurkat-PD-1 Cell Binding High-Content Screening Assay (CBA). The settings on record: Jurkat cell line over-expressing human PD-1; PE-labeled PD-L1-Ig 20 nM final; read-out: Jurkat hPD1-PDL1 IC50. It counts as cell-based. The essentials:
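Human PD-L1-Ig carrying a covalent PE label on its Ig tag serves as the probe, applied at 20 nM final to compound-treated (2 h, 37° C) Jurkat-hPD-1 cells in medium with 10% fetal calf serum. After one hour, fixation and nuclear staining precede high-content image analysis.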
For orientation: pIC50 means the IC50 on a negative log10 scale, so that one unit is a factor of ten. For the compound `Cc1cc(C[C@@H]2NC(=O)[C@H](CC(=O)O)NC(=O)[C@H](Cc3ccc(OCC(=O)O)cc3)NC(=O)[C@H](CCCNC(=N)N)NC(=O)CSC[C@@H](C(=O)N[C@@H](CCN)C(=O)NCCCCCCCCCCC(=O)O)NC(=O)[C@H]([C@@H](C)O)NC(=O)[C@H](C(C)C)NC(=O)[C@H](CC3CCCCC3)NC(=O)[C@H](CCN)NC(=O)[C@@H](CC(C)C)NC(=O)[C@H](CCCN)NC(=O)[C@H](Cc3ccc(OCC(=O)O)cc3)NC(=O)[C@H](Cc3ccc(-c4ccccc4)cc3)NC(=O)[C@H](Cc3ccc(O)cc3)NC2=O)ccc1O` [Compound 2106] ({CH2CO}-RY(Carboxymethyl)D[Tyr(3-Me)]Y[Bip]Y(Carboxymethyl)[Orn][dL][Dab][Cha]VTC[Dab][Aun]-OH; thioether N-14), the pIC50 is 7.80. As for `CC(C)C[C@H]1NC(=O)[C@H](CCCN)NC(=O)[C@H](C(C)C)NC(=O)[C@H](Cc2ccc(-c3ccccc3)cc2)NC(=O)[C@H](C(C)C)NC(=O)[C@H](Cc2c[nH]c3ccccc23)NC(=O)[C@H](CC(=O)O)NC(=O)[C@H](Cc2ccc(OCC(=O)O)cc2)NC(=O)[C@H](Cc2ccc(OCC(=O)O)cc2)NC(=O)CSC[C@@H](C(=O)NCCCCCCCCCCC(=O)O)NC(=O)[C@H](CN)NC(=O)[C@H](C(C)C)NC(=O)[C@H](CC2CCCCC2)NC(=O)[C@H](CCN)NC1=O` [Compound 2608] ({CH2CO}-Y(Carboxymethyl)Y(Carboxymethyl)DWV[Bip]V[Orn][dL][Dab][Cha]V[Dap]C[Aun]-OH; thioether N-14), the figure is 7.50; as for `Cc1cccc(C[C@@H]2NC(=O)[C@H](CC(=O)O)NC(=O)[C@H](Cc3ccc(OCC(=O)O)cc3)NC(=O)[C@H](CN)NC(=O)CSC[C@@H](C(=O)N[C@@H](CCN)C(=O)NCCCCCCCCCCC(=O)O)NC(=O)[C@H]([C@@H](C)O)NC(=O)[C@H](C(C)C)NC(=O)[C@H](CC3CCCCC3)NC(=O)[C@H](CCN)NC(=O)[C@@H](CC(C)C)NC(=O)[C@H](CCCN)NC(=O)[C@H](Cc3ccc(OCC(=O)O)cc3)NC(=O)[C@H](Cc3ccc(-c4ccccc4)cc3)NC(=O)[C@H](Cc3ccc(OCC(=O)O)cc3)NC2=O)c1` [Compound 2732] ({CH2CO}-[Dap]Y(Carboxymethyl)D[Phe(3-Me)]Y(Carboxymethyl)[Bip]Y(Carboxymethyl)[Orn][dL][Dab][Cha]VTC[Dab][Aun]-OH; thioether N-14), 7.67. As for `Cc1cccc(C[C@@H]2NC(=O)[C@H](CC(=O)O)NC(=O)[C@H](Cc3ccc(CCC(=O)O)cc3)NC(=O)[C@H](CCCNC(=N)N)NC(=O)CSC[C@@H](C(=O)N[C@@H](CCCN)C(=O)N[C@@H](CO)C(=O)NCCCCCCCCCCC(=O)O)NC(=O)[C@H](CCC(=O)O)NC(=O)[C@H](C(C)C)NC(=O)[C@H](CC3CCCCC3)NC(=O)[C@H](CCN)NC(=O)[C@@H](CC(C)C)NC(=O)[C@H](CCN)NC(=O)[C@H](CCCNC(N)=O)NC(=O)[C@H](Cc3ccc(-c4ccccc4)cc3)NC(=O)[C@H](C(C)C)NC2=O)c1` [Compound 2814] ({CH2CO}-R[Phe(4-CH2CH2COOH)]D[Phe(3-Me)]V[Bip][Cit][Dab][dL][Dab][Cha]VEC[Orn]S[Aun]-OH; thioether N-14), the figure is 7.63. As for `Cc1cccc(C[C@@H]2NC(=O)[C@H](CC(=O)O)NC(=O)[C@H](Cc3ccc(OCC(=O)O)cc3)NC(=O)[C@H](CN)NC(=O)CSC[C@@H](C(=O)N[C@@H](CCN)C(=O)NCCCCCCCCCCC(=O)O)NC(=O)[C@H](CO)NC(=O)[C@H](C(C)(C)O)NC(=O)[C@H](CC3CCC3)NC(=O)[C@H](CCN)NC(=O)[C@@H](CC(C)C)NC(=O)[C@H](CCCN)NC(=O)[C@H](Cc3ccc(OCC(=O)O)cc3)NC(=O)[C@H](Cc3ccc(-c4ccccc4)cc3)NC(=O)[C@H](Cc3ccc(OCC(=O)O)cc3)NC2=O)c1` [Compound 2175] ({CH2CO}-[Dap]Y(Carboxymethyl)D[Phe(3-Me)]Y(Carboxymethyl)[Bip]Y(Carboxymethyl)[Orn][dL][Dab][Cba][Val(3-OH)]SC[Dab][Aun]-OH; thioether N-14), the figure is 7.97; as for `CC(C)C[C@H]1NC(=O)[C@H](CCCN)NC(=O)[C@H](C(C)C)NC(=O)[C@H](Cc2ccc(-c3ccccc3)cc2)NC(=O)[C@H](C(C)C)NC(=O)[C@H](Cc2c[nH]c3ccccc23)NC(=O)[C@H](CC(=O)O)NC(=O)[C@H](Cc2c[nH]cn2)NC(=O)[C@H](CCCCNC(=N)N)NC(=O)CSC[C@@H](C(=O)NCC(=O)NCCOCCOCC(=O)N[C@@H](CCCN)C(=O)NCCCCCCCCCCC(=O)O)NC(=O)[C@H](CO)NC(=O)[C@H](C(C)C)NC(=O)[C@H](CC2CCCCC2)NC(=O)[C@H](CCN)NC1=O` [Compound 3200] ({CH2CO}-[hArg]HDWV[Bip]V[Orn][dL][Dab][Cha]VSCG[AEEA][Orn][Aun]-OH; thioether N-14), 8.14.

Regarding `CC[C@@H]1NC(=O)CSC[C@@H](C(=O)N[C@@H](CCN)C(=O)NCCCCCCCCCCCCC(=O)O)NC(=O)[C@H](Cc2c[nH]cn2)NC(=O)[C@H](C(C)(C)O)NC(=O)[C@H](CC2CCCCC2)NC(=O)[C@H](CCN)NC(=O)[C@@H](CC(C)C)NC(=O)[C@H](CCCN)NC(=O)[C@H](Cc2ccc(C(=O)O)cc2)NC(=O)[C@H](Cc2ccc(-c3ccccc3)cc2)NC(=O)[C@H](Cc2ccc(C(=O)O)cc2)NC(=O)[C@H](Cc2cccc(C(F)(F)F)c2)NC(=O)[C@H](CC(=O)O)NC(=O)[C@H](Cc2ccc(OCC(=O)O)cc2)NC1=O` [Compound 2928] ({CH2CO}-[Abu]Y(Carboxymethyl)D[Phe(3-CF3)][Phe(4-COOH)][Bip][Phe(4-COOH)][Orn][dL][Dab][Cha][Val(3-OH)]HC[Dab]-{NH(CH2)12COOH}; thioether N-14), the negative logarithm of the IC50 (pIC50) was 7.35.

As to `Cc1cccc(C[C@@H]2NC(=O)[C@H](CC(=O)O)NC(=O)[C@H](Cc3ccc(OCC(=O)O)cc3)NC(=O)[C@H](CO)NC(=O)CSC[C@@H](C(=O)N[C@@H](CCO)C(=O)N[C@@H](CO)C(=O)NCCCCCCCCCCCC(=O)O)NC(=O)[C@H](C(C)O)NC(=O)[C@H](C(C)C)NC(=O)[C@H](CC3CCCCC3)NC(=O)[C@H](CCN)NC(=O)[C@@H](CC(C)C)NC(=O)[C@H](CCCN)NC(=O)[C@H](CCCNC(N)=O)NC(=O)[C@H](Cc3ccc(-c4ccccc4)cc3)NC(=O)[C@H](C(C)C)NC2=O)c1` (stereo partly drawn) [Compound 3569] ({CH2CO}-SY(Carboxymethyl)D[Phe(3-Me)]V[Bip][Cit][Orn][dL][Dab][Cha]V[Thr(3ξ)]C[hSer]S[12Ado]-OH; thioether N-14), the negative logarithm of the IC50 (pIC50) is 7.63. Turning to `Cc1cccc(C[C@@H]2NC(=O)[C@H](CC(=O)O)NC(=O)[C@H](Cc3ccc(OCC(=O)O)cc3)NC(=O)[C@H](CCCNC(=N)N)NC(=O)CSC[C@@H](C(=O)N[C@@H](CCCCN)C(=O)N[C@@H](CO)C(=O)NCCCCCCCCCCCC(=O)O)NC(=O)[C@H](CN)NC(=O)[C@H](C(C)C)NC(=O)[C@H](CC3CCCCC3)NC(=O)[C@H](CCN)NC(=O)[C@@H](CC(C)C)NC(=O)[C@H](CCCN)NC(=O)[C@H](C(C)C)NC(=O)[C@H](Cc3ccc(-c4ccccc4)cc3)NC(=O)[C@H](C(C)C)NC2=O)c1` [Compound 3535] ({CH2CO}-RY(Carboxymethyl)D[Phe(3-Me)]V[Bip]V[Orn][dL][Dab][Cha]V[Dap]CKS[12Ado]-OH; thioether N-14), the pIC50 was 7.87. As for `CNC[C@@H]1NC(=O)CSC[C@@H](C(=O)N[C@@H](CCN)C(=O)NCCOCCOCC(=O)N[C@@H](CCC(=O)NCCOCCOCC(=O)NCCCCCCCCCCCCC(=O)O)C(=O)O)NC(=O)[C@H](CO)NC(=O)[C@H](C(C)(C)O)NC(=O)[C@H](CC2CCCCC2)NC(=O)[C@H](CCN)NC(=O)[C@@H](CC(C)C)NC(=O)[C@H](CCCN)NC(=O)[C@H](Cc2ccc(OCC(=O)O)cc2)NC(=O)[C@H](Cc2ccc(-c3ccccc3)cc2)NC(=O)[C@H](Cc2ccc(OCC(=O)O)cc2)NC(=O)[C@H](Cc2cccc(C(F)(F)F)c2)NC(=O)[C@H](CC(=O)O)NC(=O)[C@H](Cc2ccc(OCC(=O)O)cc2)NC1=O` [Compound 3905] ({CH2CO}-[Dap(Me)]Y(Carboxymethyl)D[Phe(3-CF3)]Y(Carboxymethyl)[Bip]Y(Carboxymethyl)[Orn][dL][Dab][Cha][Val(3-OH)]SC[Dab][AEEA][γGlu][AEEA]-{NH(CH2)12COOH}; thioether N-14), the figure is 7.42; as for `Cc1cccc(C[C@@H]2NC(=O)[C@H](CC(=O)O)NC(=O)[C@H](Cc3ccc(OCC(=O)O)cc3)NC(=O)[C@H](Cc3ccc(OCC(=O)O)cc3)NC(=O)CSC[C@@H](C(=O)NCC(=O)N[C@@H](CCCN)C(=O)NCCCCCCCCCCC(=O)O)NC(=O)[C@H](CO)NC(=O)[C@H](C(C)C)NC(=O)[C@H](CC3CCCCC3)NC(=O)[C@H](CCN)NC(=O)[C@@H](CC(C)C)NC(=O)[C@H](CCCN)NC(=O)[C@H](C(C)C)NC(=O)[C@H](Cc3ccc(-c4ccccc4)cc3)NC(=O)[C@H](CC(C)C)NC2=O)c1` [Compound 1071] ({CH2CO}-Y(Carboxymethyl)Y(Carboxymethyl)D[Phe(3-Me)]L[Bip]V[Orn][dL][Dab][Cha]VSCG[Orn][Aun]-OH; thioether N-14), 7.37. As for `Cc1cccc(C[C@@H]2NC(=O)[C@H](CC(=O)O)NC(=O)[C@H](Cc3ccc(OCC(=O)O)cc3)NC(=O)[C@H](C(C)O)NC(=O)CSC[C@@H](C(=O)N[C@@H](CCCCN)C(=O)NCCCCCCCCCCC(=O)O)NC(=O)[C@H](CCCCN)NC(=O)[C@H](C(C)C)NC(=O)[C@H](CC3CCCCC3)NC(=O)[C@H](CCN)NC(=O)[C@@H](CC(C)C)NC(=O)[C@H](CCCN)NC(=O)[C@H](C(C)C)NC(=O)[C@H](Cc3ccc(-c4ccccc4)cc3)NC(=O)[C@H](C(C)C)NC2=O)c1` (stereo partly drawn) [Compound 3472] ({CH2CO}-[Thr(3ξ)]Y(Carboxymethyl)D[Phe(3-Me)]V[Bip]V[Orn][dL][Dab][Cha]VKCK[Aun]-OH; thioether N-14), the figure is 7.88.
